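Cells were grown in 96-well plates and exposed to each compound for 48 hours at five concentrations; endpoints were interpolated linearly between bracketing concentrations, or set to the highest concentration if not reached. The concentration for full growth arrest is given as TGI.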
Assays:
Experiment in all cases: DTP human tumour cell line panel, 48 h
KM12 colon = test system: KM12 colon
LOX IMVI melanoma = test system: LOX IMVI melanoma
RPMI-8226 leukemia = test system: RPMI-8226 leukemia
NCI-H226 lung = test system: NCI-H226 lung
HOP-62 NSCLC = test system: HOP-62 NSCLC
BT-549 breast = test system: BT-549 breast
SF-295 CNS = test system: SF-295 CNS
EKVX NSCLC = test system: EKVX NSCLC
A549 NSCLC = test system: A549 NSCLC
RXF 393 renal = test system: RXF 393 renal
SNB-75 CNS = test system: SNB-75 CNS
HCT-15 colon = test system: HCT-15 colon
SW-620 colon = test system: SW-620 colon
T-47D breast = test system: T-47D breast
SF-539 CNS = test system: SF-539 CNS
K-562 leukemia = test system: K-562 leukemia
CAKI-1 renal = test system: CAKI-1 renal
SF-268 CNS = test system: SF-268 CNS
SK-MEL-28 melanoma = test system: SK-MEL-28 melanoma
HS 578T breast = test system: HS 578T breast
U251 CNS = test system: U251 CNS
SNB-19 CNS = test system: SNB-19 CNS
OVCAR-4 ovarian = test system: OVCAR-4 ovarian
IGROV1 ovarian = test system: IGROV1 ovarian
PC-3 prostate = test system: PC-3 prostate
HOP-92 NSCLC = test system: HOP-92 NSCLC
ACHN renal = test system: ACHN renal
TK-10 renal = test system: TK-10 renal
DU-145 prostate = test system: DU-145 prostate
SR leukemia = test system: SR leukemia
SK-MEL-5 melanoma = test system: SK-MEL-5 melanoma
HT29 colon = test system: HT29 colon
NCI/ADR-RES ovarian = test system: NCI/ADR-RES ovarian
A498 renal = test system: A498 renal
OVCAR-5 ovarian = test system: OVCAR-5 ovarian
786-0 renal = test system: 786-0 renal
OVCAR-3 ovarian = test system: OVCAR-3 ovarian
MDA-MB-231 breast = test system: MDA-MB-231 breast
NCI-H460 lung = test system: NCI-H460 lung
SK-OV-3 ovarian = test system: SK-OV-3 ovarian
MALME-3M melanoma = test system: MALME-3M melanoma
MCF7 breast = test system: MCF7 breast
MDA-N = test system: MDA-N
M14 melanoma = test system: M14 melanoma
HCT-116 colon = test system: HCT-116 colon
NCI-H522 lung = test system: NCI-H522 lung
SN12C renal = test system: SN12C renal
MOLT-4 leukemia = test system: MOLT-4 leukemia
SK-MEL-2 melanoma = test system: SK-MEL-2 melanoma
OVCAR-8 ovarian = test system: OVCAR-8 ovarian
UACC-257 melanoma = test system: UACC-257 melanoma
MDA-MB-435 = test system: MDA-MB-435
UACC-62 melanoma = test system: UACC-62 melanoma
COLO 205 colon = test system: COLO 205 colon
HL-60(TB) leukemia = test system: HL-60(TB) leukemia
UO-31 renal = test system: UO-31 renal
NCI-H23 lung = test system: NCI-H23 lung
HCC-2998 colon = test system: HCC-2998 colon
CCRF-CEM leukemia = test system: CCRF-CEM leukemia

Cc1cc(C2(c3cc(C)c(O)c(C(=O)O)c3)OS(=O)(=O)c3ccccc32)cc(C(=O)O)c1O
TGI (KM12 colon): > 100 µM | TGI (LOX IMVI melanoma): > 100 µM | TGI (RPMI-8226 leukemia): > 100 µM | TGI (NCI-H226 lung): > 100 µM | TGI (HOP-62 NSCLC): > 100 µM | TGI (BT-549 breast): > 100 µM | TGI (SF-295 CNS): > 100 µM | TGI (EKVX NSCLC): > 100 µM | TGI (A549 NSCLC): > 100 µM | TGI (RXF 393 renal): > 100 µM | TGI (SNB-75 CNS): > 100 µM | TGI (HCT-15 colon): > 100 µM | TGI (SW-620 colon): > 100 µM | TGI (T-47D breast): > 100 µM | TGI (SF-539 CNS): > 100 µM | TGI (K-562 leukemia): > 100 µM | TGI (CAKI-1 renal): > 100 µM | TGI (SF-268 CNS): > 100 µM | TGI (SK-MEL-28 melanoma): > 100 µM | TGI (HS 578T breast): > 100 µM | TGI (U251 CNS): > 100 µM | TGI (SNB-19 CNS): > 100 µM | TGI (OVCAR-4 ovarian): > 100 µM | TGI (IGROV1 ovarian): > 100 µM | TGI (PC-3 prostate): > 100 µM | TGI (HOP-92 NSCLC): > 100 µM | TGI (ACHN renal): > 100 µM | TGI (TK-10 renal): > 100 µM | TGI (DU-145 prostate): > 100 µM | TGI (SR leukemia): > 100 µM | TGI (SK-MEL-5 melanoma): > 100 µM | TGI (HT29 colon): > 100 µM | TGI (NCI/ADR-RES ovarian): > 100 µM | TGI (A498 renal): > 100 µM | TGI (OVCAR-5 ovarian): > 100 µM | TGI (786-0 renal): > 100 µM | TGI (OVCAR-3 ovarian): > 100 µM | TGI (MDA-MB-231 breast): > 100 µM | TGI (NCI-H460 lung): > 100 µM | TGI (SK-OV-3 ovarian): > 100 µM | TGI (MALME-3M melanoma): > 100 µM | TGI (MCF7 breast): > 100 µM | TGI (MDA-N): > 100 µM | TGI (M14 melanoma): > 100 µM | TGI (HCT-116 colon): > 100 µM | TGI (NCI-H522 lung): > 100 µM | TGI (SN12C renal): > 100 µM | TGI (MOLT-4 leukemia): > 100 µM | TGI (SK-MEL-2 melanoma): > 100 µM | TGI (OVCAR-8 ovarian): > 100 µM | TGI (UACC-257 melanoma): > 100 µM | TGI (MDA-MB-435): > 100 µM | TGI (UACC-62 melanoma): > 100 µM | TGI (COLO 205 colon): > 100 µM | TGI (HL-60(TB) leukemia): > 100 µM | TGI (UO-31 renal): > 100 µM

CCOC(=O)COc1ccc(/C=C/C(=O)c2ccc(OC)cc2)cc1
TGI (KM12 colon): > 100 µM | TGI (LOX IMVI melanoma): 39.4 µM | TGI (RPMI-8226 leukemia): > 100 µM | TGI (HOP-62 NSCLC): 53.3 µM | TGI (BT-549 breast): > 100 µM | TGI (SF-295 CNS): > 100 µM | TGI (EKVX NSCLC): > 100 µM | TGI (A549 NSCLC): > 100 µM | TGI (RXF 393 renal): 46 µM | TGI (NCI-H23 lung): 79.8 µM | TGI (HCC-2998 colon): 48.7 µM | TGI (SNB-75 CNS): > 100 µM | TGI (HCT-15 colon): 77.3 µM | TGI (SW-620 colon): 61.6 µM | TGI (T-47D breast): > 100 µM | TGI (SF-539 CNS): 41.5 µM | TGI (K-562 leukemia): > 100 µM | TGI (SF-268 CNS): 82.7 µM | TGI (SK-MEL-28 melanoma): 58.4 µM | TGI (HS 578T breast): > 100 µM | TGI (U251 CNS): 34.6 µM | TGI (SNB-19 CNS): > 100 µM | TGI (IGROV1 ovarian): > 100 µM | TGI (PC-3 prostate): 62.5 µM | TGI (HOP-92 NSCLC): 48.2 µM | TGI (ACHN renal): > 100 µM | TGI (TK-10 renal): > 100 µM | TGI (DU-145 prostate): 76.8 µM | TGI (SR leukemia): 87.4 µM | TGI (HT29 colon): 64.9 µM | TGI (NCI/ADR-RES ovarian): > 100 µM | TGI (CCRF-CEM leukemia): > 100 µM | TGI (A498 renal): > 100 µM | TGI (OVCAR-5 ovarian): > 100 µM | TGI (786-0 renal): 54.3 µM | TGI (OVCAR-3 ovarian): > 100 µM | TGI (MDA-MB-231 breast): 88.3 µM | TGI (MALME-3M melanoma): 92.7 µM | TGI (MCF7 breast): > 100 µM | TGI (MDA-N): 75.1 µM | TGI (M14 melanoma): > 100 µM | TGI (HCT-116 colon): 57.7 µM | TGI (NCI-H522 lung): 73.6 µM | TGI (SN12C renal): 39.6 µM | TGI (MOLT-4 leukemia): > 100 µM | TGI (SK-MEL-2 melanoma): 85.8 µM | TGI (OVCAR-8 ovarian): > 100 µM | TGI (UACC-257 melanoma): 57.3 µM | TGI (MDA-MB-435): 62.9 µM | TGI (UACC-62 melanoma): 58.6 µM | TGI (COLO 205 colon): > 100 µM | TGI (HL-60(TB) leukemia): > 100 µM | TGI (UO-31 renal): 45.4 µM
